Laboratory results as given in patent US20230085307A1, “PYRIDAZINONE COMPOUND AND HERBICIDE” (NISSAN CHEMICAL CORPORATION, priority 2019, published 2023).

Columns and labels:
[1] = tested on: Chinese sprangletop; assay: Test Example 3: herbicidal effect by foliage application, Wagner pot (Table 18, symbol D); format: in vivo, chinese sprangletop (Leptochloa chinensis); conditions: 320 g/ha
How it was run: (§1)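 Plants were sown in alluvial soil held under 0.1–0.5 cm standing water and grown 14 days in a greenhouse at 25–30 °C. An emulsifiable formulation, water-diluted to the set dose, was then sprayed onto the foliage, and effects were scored three weeks later using previously defined criteria.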

[2] = tested on: redroot pigweed; assay: Test Example 4: herbicidal effect by soil treatment (Table 19, symbol N); format: in vivo, redroot pigweed (Amaranthus retroflexus); conditions: amount of applied herbicide 320 g/ha
How it was run: (§2)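 In this soil treatment, the formulated compound reached the seeds only through the soil: seeds were buried about 1.5 cm deep in sterilized diluvial soil, then the diluted emulsion was sprayed over the surface. After three weeks at 25° C. to 30° C. in a greenhouse, effects were graded on criteria from an earlier test.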

[3] = tested on: chickweed; assay: Test Example 5: herbicidal effect by foliage application, plastic box (Table 20, symbol P); format: in vivo, common chickweed (Stellaria media); conditions: foliage application, 320 g/ha, three weeks after application
How it was run: (§3)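 Plants were sown into sterilized diluvial soil under about 1.5 cm cover and kept in a greenhouse at 25° C. to 30° C. Fourteen days on, foliage received an even spray of the diluted emulsion. Herbicidal or crop effect was judged three weeks afterwards.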

[4] = tested on: windgrass; assay: Test Example 5: herbicidal effect by foliage application, plastic box (Table 20, symbol L); format: in vivo, windgrass (Apera spica-venti); conditions: foliage application, 320 g/ha, three weeks after application
How it was run: as §3

[5] = tested on: rice flat sedge; assay: Test Example 3: herbicidal effect by foliage application, Wagner pot (Table 18, symbol E); format: in vivo, rice flat sedge (Cyperus iria); conditions: 320 g/ha
How it was run: as §1

[6] = tested on: windgrass; assay: Test Example 4: herbicidal effect by soil treatment (Table 19, symbol L); format: in vivo, windgrass (Apera spica-venti); conditions: amount of applied herbicide 320 g/ha
How it was run: as §2

[7] = tested on: chickweed; assay: Test Example 4: herbicidal effect by soil treatment (Table 19, symbol P); format: in vivo, common chickweed (Stellaria media); conditions: amount of applied herbicide 320 g/ha
How it was run: as §2

[8] = tested on: oval-leafed pondweed; assay: Test Example 1: herbicidal activity, application before weed generation under submerged conditions (Table 16, symbol C); format: in vivo, oval-leafed pondweed (Monochoria vaginalis); conditions: amount of applied herbicide 320 g/ha
How it was run: (§4)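 Submerged Wagner pots (alluvial soil, 4 cm water) sown with weed seeds and planted with 2.5-leaf rice seedlings; emulsifiable concentrate diluted in water applied to water surface on sowing day. Held in greenhouse at 25-30 °C; injury scored 0-5 by herbicidal rate after three weeks.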

[9] = tested on: blackgrass; assay: Test Example 5: herbicidal effect by foliage application, plastic box (Table 20, symbol J); format: in vivo, blackgrass (Alopecurus myosuroides); conditions: foliage application, 320 g/ha, three weeks after application
How it was run: as §3

[10] = tested on: persian speedwell; assay: Test Example 4: herbicidal effect by soil treatment (Table 19, symbol R); format: in vivo, Persian speedwell (Veronica persica); conditions: amount of applied herbicide 320 g/ha
How it was run: as §2

[11] = tested on: Italian ryegrass; assay: Test Example 4: herbicidal effect by soil treatment (Table 19, symbol K); format: in vivo, Italian ryegrass (Lolium multiflorum); conditions: amount of applied herbicide 320 g/ha
How it was run: as §2

[12] = tested on: Japanese bulrush; assay: Test Example 1: herbicidal activity, application before weed generation under submerged conditions (Table 16, symbol B); format: in vivo, Japanese bulrush (Schoenoplectus juncoides); conditions: amount of applied herbicide 320 g/ha
How it was run: as §4

[13] = tested on: redroot pigweed; assay: Test Example 5: herbicidal effect by foliage application, plastic box (Table 20, symbol N); format: in vivo, redroot pigweed (Amaranthus retroflexus); conditions: foliage application, 320 g/ha, three weeks after application
How it was run: as §3

[14] = tested on: southern crabgrass; assay: Test Example 4: herbicidal effect by soil treatment (Table 19, symbol F); format: in vivo, southern crabgrass (Digitaria ciliaris); conditions: amount of applied herbicide 320 g/ha
How it was run: as §2

[15] = tested on: barnyard grass; assay: Test Example 3: herbicidal effect by foliage application, Wagner pot (Table 18, symbol H); format: in vivo, barnyard grass (Echinochloa crus-galli); conditions: 320 g/ha
How it was run: as §1

[16] = tested on: velvetleaf; assay: Test Example 5: herbicidal effect by foliage application, plastic box (Table 20, symbol M); format: in vivo, velvetleaf (Abutilon theophrasti); conditions: foliage application, 320 g/ha, three weeks after application
How it was run: as §3

[17] = tested on: barnyard grass; assay: Test Example 4: herbicidal effect by soil treatment (Table 19, symbol H); format: in vivo, barnyard grass (Echinochloa crus-galli); conditions: amount of applied herbicide 320 g/ha
How it was run: as §2

[18] = tested on: velvetleaf; assay: Test Example 4: herbicidal effect by soil treatment (Table 19, symbol M); format: in vivo, velvetleaf (Abutilon theophrasti); conditions: amount of applied herbicide 320 g/ha
How it was run: as §2

[19] = tested on: late watergrass; assay: Test Example 1: herbicidal activity, application before weed generation under submerged conditions (Table 16, symbol A); format: in vivo, late watergrass (Echinochloa oryzicola); conditions: amount of applied herbicide 320 g/ha
How it was run: as §4

[20] = tested on: wild oat; assay: Test Example 4: herbicidal effect by soil treatment (Table 19, symbol I); format: in vivo, wild oat (Avena fatua); conditions: amount of applied herbicide 320 g/ha
How it was run: as §2

[21] = tested on: green foxtail; assay: Test Example 5: herbicidal effect by foliage application, plastic box (Table 20, symbol G); format: in vivo, green foxtail (Setaria viridis); conditions: foliage application, 320 g/ha, three weeks after application
How it was run: as §3

[22] = tested on: wild oat; assay: Test Example 5: herbicidal effect by foliage application, plastic box (Table 20, symbol I); format: in vivo, wild oat (Avena fatua); conditions: foliage application, 320 g/ha, three weeks after application
How it was run: as §3

[23] = tested on: southern crabgrass; assay: Test Example 5: herbicidal effect by foliage application, plastic box (Table 20, symbol F); format: in vivo, southern crabgrass (Digitaria ciliaris); conditions: foliage application, 320 g/ha, three weeks after application
How it was run: as §3

[24] = tested on: green foxtail; assay: Test Example 4: herbicidal effect by soil treatment (Table 19, symbol G); format: in vivo, green foxtail (Setaria viridis); conditions: amount of applied herbicide 320 g/ha
How it was run: as §2

[25] = tested on: lambsquarters; assay: Test Example 5: herbicidal effect by foliage application, plastic box (Table 20, symbol O); format: in vivo, lambsquarters (Chenopodium album); conditions: foliage application, 320 g/ha, three weeks after application
How it was run: as §3

[26] = tested on: persian speedwell; assay: Test Example 5: herbicidal effect by foliage application, plastic box (Table 20, symbol R); format: in vivo, Persian speedwell (Veronica persica); conditions: foliage application, 320 g/ha, three weeks after application
How it was run: as §3

[27] = tested on: barnyard grass; assay: Test Example 5: herbicidal effect by foliage application, plastic box (Table 20, symbol H); format: in vivo, barnyard grass (Echinochloa crus-galli); conditions: foliage application, 320 g/ha, three weeks after application
How it was run: as §3

[28] = tested on: blackgrass; assay: Test Example 4: herbicidal effect by soil treatment (Table 19, symbol J); format: in vivo, blackgrass (Alopecurus myosuroides); conditions: amount of applied herbicide 320 g/ha
How it was run: as §2

[29] = tested on: lambsquarters; assay: Test Example 4: herbicidal effect by soil treatment (Table 19, symbol O); format: in vivo, lambsquarters (Chenopodium album); conditions: amount of applied herbicide 320 g/ha
How it was run: as §2

[30] = tested on: Italian ryegrass; assay: Test Example 5: herbicidal effect by foliage application, plastic box (Table 20, symbol K); format: in vivo, Italian ryegrass (Lolium multiflorum); conditions: foliage application, 320 g/ha, three weeks after application
How it was run: as §3

SMILES | herbicidal effect on Chinese sprangletop (D) [1] | P: chickweed, herbicidal effect grade [3] | L: windgrass, herbicidal effect grade [4] | herbicidal effect on rice flat sedge (E) [5] | Herbicidal effect, C: oval-leafed pondweed [8] | J: blackgrass, herbicidal effect grade [9] | Herbicidal effect, B: Japanese bulrush [12] | N: redroot pigweed, herbicidal effect grade [13] | herbicidal effect on barnyard grass (H) [15] | M: velvetleaf, herbicidal effect grade [16] | Herbicidal effect, A: late watergrass [19] | G: green foxtail, herbicidal effect grade [21] | I: wild oat, herbicidal effect grade [22] | F: southern crabgrass, herbicidal effect grade [23] | O: lambsquarters, herbicidal effect grade [25] | R: persian speedwell, herbicidal effect grade [26] | H: barnyard grass, herbicidal effect grade [27] | K: Italian ryegrass, herbicidal effect grade [30] | other results
Cc1nn(C)c(=O)c(-c2c(-c3ccc4c(c3)OCCO4)sc3cc(Cl)ccc23)c1O [3-047] | 3 (Herbicidal rate of 40% or more and less than 70%) | 3 (Herbicidal rate of 40% or more and less than 70%) | 0 (Herbicidal rate of 5% or less (almost no effect)) | 2 (Herbicidal rate of 20% or more and less than 40%) | 0 (Herbicidal rate of 5% or less (almost no effect)) | 0 (Herbicidal rate of 5% or less (almost no effect)) | 2 (Herbicidal rate of 20% or more and less than 40%) | 0 (Herbicidal rate of 5% or less (almost no effect)) | 3 (Herbicidal rate of 40% or more and less than 70%) | 1 (Herbicidal rate of 5% or more and less than 20%) | 3 (Herbicidal rate of 40% or more and less than 70%) | 0 (Herbicidal rate of 5% or less (almost no effect)) | 0 (Herbicidal rate of 5% or less (almost no effect)) | 0 (Herbicidal rate of 5% or less (almost no effect)) | 2 (Herbicidal rate of 20% or more and less than 40%) | 5 (Herbicidal rate of 90% or more (almost completely withered)) | 0 (Herbicidal rate of 5% or less (almost no effect)) | 0 (Herbicidal rate of 5% or less (almost no effect)) | N: redroot pigweed, herbicidal effect grade [2]: 1 (Herbicidal rate of 5% or more and less than 20%); L: windgrass, herbicidal effect grade [6]: 0 (Herbicidal rate of 5% or less (almost no effect)); P: chickweed, herbicidal effect grade [7]: 0 (Herbicidal rate of 5% or less (almost no effect)); R: persian speedwell, herbicidal effect grade [10]: 5 (Herbicidal rate of 90% or more (almost completely withered)); K: Italian ryegrass, herbicidal effect grade [11]: 0 (Herbicidal rate of 5% or less (almost no effect)); F: southern crabgrass, herbicidal effect grade [14]: 0 (Herbicidal rate of 5% or less (almost no effect)); H: barnyard grass, herbicidal effect grade [17]: 0 (Herbicidal rate of 5% or less (almost no effect)); M: velvetleaf, herbicidal effect grade [18]: 0 (Herbicidal rate of 5% or less (almost no effect)); I: wild oat, herbicidal effect grade [20]: 0 (Herbicidal rate of 5% or less (almost no effect)); G: green foxtail, herbicidal effect grade [24]: 0 (Herbicidal rate of 5% or less (almost no effect)); J: blackgrass, herbicidal effect grade [28]: 0 (Herbicidal rate of 5% or less (almost no effect)); O: lambsquarters, herbicidal effect grade [29]: 3 (Herbicidal rate of 40% or more and less than 70%)
COCc1ccc2c(-c3c(O)c(C)nn(C)c3=O)c(-c3ccccc3OC)sc2c1 [3-137] | 5 (Herbicidal rate of 90% or more (almost completely withered)) | 5 (Herbicidal rate of 90% or more (almost completely withered)) | 4 (Herbicidal rate of 70% or more and less than 90%) | 5 (Herbicidal rate of 90% or more (almost completely withered)) | 0 (Herbicidal rate of 5% or less (almost no effect)) | 4 (Herbicidal rate of 70% or more and less than 90%) | 0 (Herbicidal rate of 5% or less (almost no effect)) | 1 (Herbicidal rate of 5% or more and less than 20%) | 3 (Herbicidal rate of 40% or more and less than 70%) | 5 (Herbicidal rate of 90% or more (almost completely withered)) | 3 (Herbicidal rate of 40% or more and less than 70%) | 5 (Herbicidal rate of 90% or more (almost completely withered)) | 4 (Herbicidal rate of 70% or more and less than 90%) | 5 (Herbicidal rate of 90% or more (almost completely withered)) | 0 (Herbicidal rate of 5% or less (almost no effect)) | 5 (Herbicidal rate of 90% or more (almost completely withered)) | 3 (Herbicidal rate of 40% or more and less than 70%) | 4 (Herbicidal rate of 70% or more and less than 90%) | Herbicidal effect by soil treatment, N: redroot pigweed [2]: 0 (Herbicidal rate of 5% or less (almost no effect)); Herbicidal effect by soil treatment, L: windgrass [6]: 0 (Herbicidal rate of 5% or less (almost no effect)); Herbicidal effect by soil treatment, P: chickweed [7]: 5 (Herbicidal rate of 90% or more (almost completely withered)); Herbicidal effect by soil treatment, R: persian speedwell [10]: 4 (Herbicidal rate of 70% or more and less than 90%); Herbicidal effect by soil treatment, K: Italian ryegrass [11]: 1 (Herbicidal rate of 5% or more and less than 20%); Herbicidal effect by soil treatment, F: southern crabgrass [14]: 0 (Herbicidal rate of 5% or less (almost no effect)); Herbicidal effect by soil treatment, H: barnyard grass [17]: 5 (Herbicidal rate of 90% or more (almost completely withered)); Herbicidal effect by soil treatment, M: velvetleaf [18]: 0 (Herbicidal rate of 5% or less (almost no effect)); Herbicidal effect by soil treatment, I: wild oat [20]: 1 (Herbicidal rate of 5% or more and less than 20%); Herbicidal effect by soil treatment, G: green foxtail [24]: 1 (Herbicidal rate of 5% or more and less than 20%); Herbicidal effect by soil treatment, J: blackgrass [28]: 0 (Herbicidal rate of 5% or less (almost no effect)); Herbicidal effect by soil treatment, O: lambsquarters [29]: 0 (Herbicidal rate of 5% or less (almost no effect))
